Legend:
Experiment in all cases: microbe, parasite or virus in culture
Format in all cases: cell-based, HIV-1
[1] = test system: NLRepRlucP373S recombinant wild type (WT) virus; settings: Human immunodeficiency virus 1, MT2, read-out: WT EC50
Summary of the method: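 Multiple-cycle assay: luciferase-normalized NL4-3-derived NLRepRlucP373S (Renilla luciferase in place of nef) infects MT-2 cells, 10,000 cells/well, with 3-fold compound dilutions at 1% DMSO, 4-5 days, 37 °C. EC50 and EC90 fitted by median effect equation against Renilla luminescence, with residual signal under 3 μM NFV as background.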

[2] = test system: T332S/V362I/Pr R41G virus; settings: Human immunodeficiency virus 1, MT2, read-out: T332S/V362I/pr41G EC50
Summary of the method: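 Multiple-cycle susceptibility: MT-2 cells, 10,000 per well, exposed to 3-fold compound dilutions at 1% DMSO after infection with luciferase-normalized inoculum. Virus: NL4-3-derived Renilla reporter (Gag P373S) with Gag T332S/V362I and protease R41G. Readout Renilla luciferase after 4–5 days, 37 °C.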

[3] = test system: A364V site directed mutant virus; settings: Human immunodeficiency virus 1, MT2, read-out: A364V EC50
Summary of the method: (§1)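 Virus yield quantified by Renilla luciferase after 4–5 day culture at 37°C of MT-2 cells (10,000/well) with 3-fold serially diluted compound at 1% final DMSO. Reporter viruses were NL4-3 P373S derivatives bearing Gag A364V or V370A/ΔT371, inputs matched on luciferase endpoint.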

[4] = test system: gag V370A/ΔT371 virus; settings: Human immunodeficiency virus 1, MT2, read-out: V370A/ΔT371 EC50
Summary of the method: as §1

C=C(C)[C@@H]1CC[C@]2(NCCC3(O)CCS(=O)(=O)CC3)CC[C@]3(C)[C@H](CC[C@@H]4[C@@]5(C)CC=C(C6=CCC(COc7ccccn7)(C(=O)O)CC6)C(C)(C)[C@@H]5CC[C@]43C)[C@@H]12 (stereo partly drawn) [Example 33, 4-((1R,3aS,5aR,5bR,7aR,11aS,11bR,13aR,13bR)-3a-((2-(4-hydroxy-1,1-dioxidotetrahydro-2H-thiopyran-4-yl)ethyl)amino)-5a,5b,8,8,11a-pentamethyl-1-(prop-1-en-2-yl)-2,3,3a,4,5,5a,5b,6,7,7a,8,11,11a,11b,12,13,13a,13b-octadecahydro-1H-cyclopenta[a]chrysen-9-yl)-1-((pyridin-2-yloxy)methyl)cyclohex-3-ene-1-carboxylic acid]
EC50 [1]: 5 nM
EC50 [2]: < 50 nM
EC50 [3]: 16 nM
EC50 [4]: < 50 nM

C=C(C)[C@@H]1CC[C@]2(NCCN3CCS(=O)(=O)CC3)CC[C@]3(C)[C@H](CC[C@@H]4[C@@]5(C)CC=C(C6=CCC(COc7ncccn7)(C(=O)O)CC6)C(C)(C)[C@@H]5CC[C@]43C)[C@@H]12 (stereo partly drawn) [Example 34]
EC50 [1]: 2 nM
EC50 [2]: 13 nM
EC50 [3]: < 50 nM
EC50 [4]: 13 nM

C=C(C)[C@@H]1CC[C@]2(NCCN3CCS(=O)(=O)CC3)CC[C@]3(C)[C@H](CC[C@@H]4[C@@]5(C)CC=C(C6=CCC(COc7nccc8ccc(OC)cc78)(C(=O)O)CC6)C(C)(C)[C@@H]5CC[C@]43C)[C@@H]12 (stereo partly drawn) [Example 35, 4-((1R,3aS,5aR,5bR,7aR,11aS,11bR,13aR,13bR)-3a-((2-(1,1-dioxidothiomorpholino)ethyl)amino)-5a,5b,8,8,11a-pentamethyl-1-(prop-1-en-2-yl)-2,3,3a,4,5,5a,5b,6,7,7a,8,11,11a,11 b,12,13,13a,13b-octadecahydro-1H-cyclopenta[a]chrysen-9-yl)-1-(((7-methoxyisoquinolin-1-yl)oxy)methyl)cyclohex-3-ene-1-carboxylic acid]
EC50 [1]: 7 nM
EC50 [2]: > 50 nM
EC50 [3]: 24 nM
EC50 [4]: > 50 nM

C=C(C)[C@@H]1CC[C@]2(NCCN3CCS(=O)(=O)CC3)CC[C@]3(C)[C@H](CC[C@@H]4[C@@]5(C)CC=C(C6=CCC(COc7ncccc7C#N)(C(=O)O)CC6)C(C)(C)[C@@H]5CC[C@]43C)[C@@H]12 (stereo partly drawn) [Example 36, 1-(((3-cyanopyridin-2-yl)oxy)methyl)-4-((1R,3aS,5aR,5bR,7aR,11aS,11bR,13aR,13bR)-3a-((2-(1,1-dioxidothiomorpholino)ethyl)amino)-5a,5b,8,8,11a-pentamethyl-1-(prop-1-en-2-yl)-2,3,3a,4,5,5a,5b,6,7,7a,8,11,11a,11b,12,13,13a,13b-octadecahydro-1H-cyclopenta[a]chrysen-9-yl)cyclohex-3-ene-1-carboxylic acid]
EC50 [1]: 3 nM
EC50 [2]: 11 nM
EC50 [3]: 5 nM
EC50 [4]: 11 nM

C=C(C)[C@@H]1CC[C@]2(NCCN3CCS(=O)(=O)CC3)CC[C@]3(C)[C@H](CC[C@@H]4[C@@]5(C)CC=C(C6=CCC(COc7cc(C#N)ccn7)(C(=O)O)CC6)C(C)(C)[C@@H]5CC[C@]43C)[C@@H]12 (stereo partly drawn) [Example 37, 1-(((4-cyanopyridin-2-yl)oxy)methyl)-4-((1R,3aS,5aR,5bR,7aR,11aS,11bR,13aR,13bR)-3a-((2-(1,1-dioxidothiomorpholino)ethyl)amino)-5a,5b,8,8,11a-pentamethyl-1-(prop-1-en-2-yl)-2,3,3a,4,5,5a,5b,6,7,7a,8,11,11a,11b,12,13,13a,13b-octadecahydro-1H-cyclopenta[a]chrysen-9-yl)cyclohex-3-ene-1-carboxylic acid]
EC50 [1]: < 50 nM
EC50 [2]: > 50 nM
EC50 [3]: > 50 nM
EC50 [4]: > 50 nM

C=C(C)[C@@H]1CC[C@]2(NCCN3CCS(=O)(=O)CC3)CC[C@]3(C)[C@H](CC[C@@H]4[C@@]5(C)CC=C(C6=CCC(COc7ccc(C#N)cn7)(C(=O)O)CC6)C(C)(C)[C@@H]5CC[C@]43C)[C@@H]12 (stereo partly drawn) [Example 38, 1-(((5-cyanopyridin-2-yl)oxy)methyl)-4-((1R,3aS,5aR,5bR,7aR,11aS,11bR,13aR,13bR)-3a-((2-(1,1-dioxidothiomorpholino)ethyl)amino)-5a,5b,8,8,11a-pentamethyl-1-(prop-1-en-2-yl)-2,3,3a,4,5,5a,5b,6,7,7a,8,11,11a,11b,12,13,13a,13b-octadecahydro-1H-cyclopenta[a]chrysen-9-yl)cyclohex-3-ene-1-carboxylic acid]
EC50 [1]: 2 nM
EC50 [2]: 232 nM
EC50 [3]: 29 nM
EC50 [4]: 232 nM

C=C(C)[C@@H]1CC[C@]2(NCCN3CCS(=O)(=O)CC3)CC[C@]3(C)[C@H](CC[C@@H]4[C@@]5(C)CC=C(C6=CCC(COc7cccc(C#N)n7)(C(=O)O)CC6)C(C)(C)[C@@H]5CC[C@]43C)[C@@H]12 (stereo partly drawn) [Example 39, 1-(((6-cyanopyridin-2-yl)oxy)methyl)-4-((1R,3aS,5aR,5bR,7aR,11aS,11bR,13aR,13bR)-3a-((2-(1,1-dioxidothiomorpholino)ethyl)amino)-5a,5b,8,8,11a-pentamethyl-1-(prop-1-en-2-yl)-2,3,3a,4,5,5a,5b,6,7,7a,8,11,11a,11b,12,13,13a,13b-octadecahydro-1H-cyclopenta[a]chrysen-9-yl)cyclohex-3-ene-1-carboxylic acid]
EC50 [1]: 14 nM
EC50 [2]: > 50 nM
EC50 [3]: < 50 nM
EC50 [4]: > 50 nM

C=C(C)[C@@H]1CC[C@]2(NCCN3CCS(=O)(=O)CC3)CC[C@]3(C)[C@H](CC[C@@H]4[C@@]5(C)CC=C(C6=CCC(COc7cccc(C(N)=O)n7)(C(=O)O)CC6)C(C)(C)[C@@H]5CC[C@]43C)[C@@H]12 (stereo partly drawn) [Example 40, 1-(((6-carbamoylpyridin-2-yl)oxy)methyl)-4-((1R,3aS,5aR,5bR,7aR,11aS,11bR,13aR,13bR)-3a-((2-(1,1-dioxidothiomorpholino)ethyl)amino)-5a,5b,8,8,11a-pentamethyl-1-(prop-1-en-2-yl)-2,3,3a,4,5,5a,5b,6,7,7a,8,11,11a,11b,12,13,13a,13b-octadecahydro-1H-cyclopenta[a]chrysen-9-yl)cyclohex-3-ene-1-carboxylic acid]
EC50 [1]: 4 nM
EC50 [2]: 233 nM
EC50 [3]: 271 nM
EC50 [4]: 233 nM

C=C(C)[C@@H]1CC[C@]2(NCC[C@]3(O)CC[C@@H](S(C)(=O)=O)CC3)CC[C@]3(C)[C@H](CC[C@@H]4[C@@]5(C)CC=C(C6=CCC(COc7ccccn7)(C(=O)O)CC6)C(C)(C)[C@@H]5CC[C@]43C)[C@@H]12 (stereo partly drawn) [Example A1, 4-((1R,3aS,5aR,5bR,7aR,11aS,11bR,13aR,13bR)-3a-((2-((1s,4R)-1-hydroxy-4-(methylsulfonyl)cyclohexyl)ethyl)amino)-5a,5b,8,8,11a-pentamethyl-1-(prop-1-en-2-yl)-2,3,3a,4,5,5a,5b,6,7,7a,8,11,11a,11 b,12,13,13a,13b-octadecahydro-1H-cyclopenta[a]chrysen-9-yl)-1-((pyridin-2-yloxy)methyl)cyclohex-3-enecarboxylic acid]
EC50 [1]: 5 nM
EC50 [2]: 26 nM
EC50 [3]: 9 nM
EC50 [4]: 26 nM

Source: patent publication US10421774B2 (priority 2016, dated 2019)
